Source: US9012403B2, “Peptides as active agents to stabilize biological barriers” (XiberScience GmbH, priority 2010, dated 2015)

Tested on: Ventilator-Induced Lung Injury (VILI)
Test: Ventilator-induced lung injury (VILI) after LPS pre-challenge
Type: in vivo
Details: mice
Procedure: Experiments were performed with healthy C57BL/6 (aged 8-10 weeks, with weights ranging from 19-25 g). All interventions were performed according to the guide lines of AAALAC. All experiment were approved by the Ethic committee of the University of Amsterdam.
Mice were challenged with LPS (dosage: 50 μg per mouse) (or saline), via intranasal injection 2 h before initiation of mechanical ventilation, to induce lung injury.
XIB1-1b (or random peptide) was administered i.v. 10 min before start of mechanical ventilation (dosage: 4 mg/kg loading dose, followed administration i.v. injections 1 mg/kg/h.
A Y-tube connector with 1.0 mm outer diameter and 0.6 mm inner diameter was surgically inserted into the trachea under general anesthesia. Mice were placed in a supine position and connected to a ventilator. Mice were pressure-controlled ventilated with either an inspiratory pressure of 10 cm H2O (resulting in VT˜7.5 mL/kg; low VT, LVT) or an inspiratory pressure of 18 cm H2O (resulting in VT˜15 mL/kg; high VT, HVT). Positive end-expiratory pressure (PEEP) is set at 2 cm H2O with both MV-strategies. The fraction of inspired oxygen was kept at 0.5 throughout the experiment. The inspiration to expiration ratio was kept at 1:1 throughout the experiment.
BALF was obtained by instilling 3 times 0.5 mL aliquots of saline by a 22-gauge Abbocath-T catheter (Abbott, Sligo, Ireland) into the trachea. Approximately, 1.0 mL of BALF was retrieved per mouse and cell counts were determined using a hemacytometer (Beckman Coulter, Fullerton, Calif.). Subsequently, differential counts were done on cytospin preparations stained with a modified Giemsa stain, Diff-Quick (Dade Behring AG, Düdingen, Switzerland). Supernatant was stored at −80° C.
Total protein levels in BALF are determined using a Bradford Protein Assay Kit (OZ Biosciences, Marseille, France) according to manufacturers' instructions with bovine serum albumin as standard. Mouse IgM was determined by ELISA by using anti-Mouse IgM sensitized 96-strip micro-well plates according to manufacturers' instructions (IMMUNO-TEK kit from ZeptoMetrix).

[1] = LPS + high tidal volume ventilation (LPS-HTV), i.v. 4 mg/kg loading, then 1 mg/kg/h
[2] = LPS + low tidal volume ventilation (LPS+LTV), compared to scrambled peptide
[3] = LPS + low tidal volume ventilation (LPS+LTV), protocol caused no pronounced increase

Sequence: GRRPLGGISGG (/note=“Description of artificial sequence cingulin-derived peptide XIB1-b”)
- IgM content in the BALF [1]: significant decrease
- neutrophil count in the BALF [1]: significant decrease
- total cell count in the BALF [1]: significant decrease
- total protein content in the BALF [1]: significant decrease
- neutrophil counts in the BALF [2]: significantly reduced
- total cell counts in the BALF [2]: significantly reduced
- IgM content in the BALF [3]: no effect
- total protein content in the BALF [3]: no effect
